The assay addresses IKZF2 (Helios) (Homo sapiens (Human), UniProt Q96SW2+Q9UKS7). The assay is described as follows: Prolabel quantification of IKZF2 protein levels in 293GT cells.

Where a name gives a salt, the structure may show the parent alone.

Sequence of IKZF2 (Helios) (Q9UKS7 whole entry): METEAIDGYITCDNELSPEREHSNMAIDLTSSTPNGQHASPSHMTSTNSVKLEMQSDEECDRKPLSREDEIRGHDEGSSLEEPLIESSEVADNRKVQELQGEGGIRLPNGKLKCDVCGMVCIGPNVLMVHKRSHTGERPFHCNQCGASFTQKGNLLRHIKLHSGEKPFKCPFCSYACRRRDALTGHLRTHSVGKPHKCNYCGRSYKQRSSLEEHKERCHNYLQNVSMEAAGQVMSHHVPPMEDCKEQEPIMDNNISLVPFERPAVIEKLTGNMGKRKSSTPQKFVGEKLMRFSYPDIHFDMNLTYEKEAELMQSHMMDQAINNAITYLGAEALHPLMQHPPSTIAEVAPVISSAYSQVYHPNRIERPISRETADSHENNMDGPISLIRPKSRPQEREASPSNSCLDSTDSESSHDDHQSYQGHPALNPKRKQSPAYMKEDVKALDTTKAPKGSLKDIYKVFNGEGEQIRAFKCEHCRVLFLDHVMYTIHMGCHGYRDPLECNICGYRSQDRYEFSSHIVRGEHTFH
Sequence of IKZF2 (Helios) (Q96SW2 whole entry): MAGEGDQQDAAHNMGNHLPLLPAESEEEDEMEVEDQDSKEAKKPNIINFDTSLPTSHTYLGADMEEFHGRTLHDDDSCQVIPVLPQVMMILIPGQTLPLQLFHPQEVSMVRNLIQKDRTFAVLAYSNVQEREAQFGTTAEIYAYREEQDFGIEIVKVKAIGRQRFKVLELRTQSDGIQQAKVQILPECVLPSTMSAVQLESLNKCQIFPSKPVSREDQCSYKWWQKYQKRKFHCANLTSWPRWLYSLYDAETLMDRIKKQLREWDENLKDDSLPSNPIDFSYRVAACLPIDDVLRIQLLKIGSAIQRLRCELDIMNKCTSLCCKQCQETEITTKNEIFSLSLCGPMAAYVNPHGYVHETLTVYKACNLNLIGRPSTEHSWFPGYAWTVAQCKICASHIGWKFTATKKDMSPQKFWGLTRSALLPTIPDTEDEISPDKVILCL
Sequence of IKZF2 (Helios) (Q16531 whole entry partner): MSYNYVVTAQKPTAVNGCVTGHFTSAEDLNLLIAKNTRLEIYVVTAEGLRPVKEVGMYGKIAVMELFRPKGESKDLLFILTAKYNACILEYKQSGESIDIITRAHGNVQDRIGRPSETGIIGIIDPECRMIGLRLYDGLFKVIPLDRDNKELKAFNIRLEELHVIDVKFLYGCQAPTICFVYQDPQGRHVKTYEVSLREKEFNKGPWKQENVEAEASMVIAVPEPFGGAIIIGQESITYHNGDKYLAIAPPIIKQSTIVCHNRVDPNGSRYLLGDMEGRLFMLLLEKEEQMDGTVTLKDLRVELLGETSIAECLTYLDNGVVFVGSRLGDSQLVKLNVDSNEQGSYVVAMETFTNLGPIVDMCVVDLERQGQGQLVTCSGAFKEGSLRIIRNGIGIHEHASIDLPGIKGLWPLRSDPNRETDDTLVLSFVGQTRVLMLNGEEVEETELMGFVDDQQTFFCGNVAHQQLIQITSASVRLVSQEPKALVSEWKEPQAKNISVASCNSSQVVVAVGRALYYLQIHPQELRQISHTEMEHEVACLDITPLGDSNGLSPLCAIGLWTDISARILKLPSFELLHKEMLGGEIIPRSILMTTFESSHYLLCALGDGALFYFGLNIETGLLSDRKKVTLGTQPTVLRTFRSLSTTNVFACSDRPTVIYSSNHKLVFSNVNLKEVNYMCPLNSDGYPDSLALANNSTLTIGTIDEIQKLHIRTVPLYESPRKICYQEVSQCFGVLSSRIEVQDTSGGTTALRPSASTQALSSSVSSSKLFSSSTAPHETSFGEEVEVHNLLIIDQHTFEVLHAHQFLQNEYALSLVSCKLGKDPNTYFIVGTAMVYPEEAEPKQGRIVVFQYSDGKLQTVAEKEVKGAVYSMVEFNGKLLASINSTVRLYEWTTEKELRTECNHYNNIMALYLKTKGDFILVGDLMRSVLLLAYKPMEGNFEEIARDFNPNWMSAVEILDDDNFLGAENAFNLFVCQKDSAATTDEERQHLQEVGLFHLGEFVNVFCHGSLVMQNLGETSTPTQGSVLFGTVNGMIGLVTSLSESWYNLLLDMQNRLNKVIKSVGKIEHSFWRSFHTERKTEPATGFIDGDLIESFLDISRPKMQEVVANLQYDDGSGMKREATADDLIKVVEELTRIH
Protocol: The Prolabel system from DiscoverX was used to develop high-throughput and quantitative assays to measure changes in IKZF1, IKZF2, and GSPT1 protein levels in response to compounds. […] The complementary fragment of beta-galactosidase (from DiscoverX), is added to the prolabel tag to form an active beta galactosidase enzyme whose activity can be precisely measured. In this way, the levels of a fusion protein with the prolabel tag can be quantified in cell lysates.
Lentiviral vectors, based on the Invitrogen pLenti6.2/V5 DEST backbone, were constructed that placed the prolabel tag upstream of IKZF1, IKZF2, or GSPT1 and expressed the fusion protein from a CMV promoter.
To ensure moderate and consistent expression of the prolabel fusion proteins across all cells in the population, stable cell lines were constructed from cells expressing a single copy of the construct. Lentivirus packaged with the constructs was made using the Virapower kit from Invitrogen.
The levels of prolabel tagged fusion proteins in compound treated cell lines were measured as follows: […]
Day 3, Plates were removed from the incubator and allowed to equilibrate at rt for 30 minutes. […] Plates were incubated at rt for three hours and luminescence was read using an Envision reader (Perkin Elmer) Data was analyzed and visualized using the Spotfire software package.

Take `CC(C)CN[C@H]1CCCC[C@@H]1Nc1ccc2c(c1)CN(C1CCC(=O)NC1=O)C2=O` (stereo partly drawn) [I-15, 3-(5-(((1S,2S)-2-(isobutylamino)cyclohexyl)amino)-1-oxoisoindolin-2-yl)piperidine-2,6-dione]: the concentration giving a half-maximal response (EC50) (usually the concentration needed to bring the measured effect to its halfway point) (read-out: IKZF2 EC50, Pro-label assay, 293GT cells, degradation) is 940 nM.

As for `CN[C@H]1CCCC[C@@H]1N(C)c1ccc2c(c1)CN(C1CCC(=O)NC1=O)C2=O` (mixture of isomers) [I-9, Racemic trans-3-(5-(methyl(-2-(methylamino)cyclohexyl)amino)-1-oxoisoindolin-2-yl)piperidine-2,6-dione HC(O)OH Salt], where the note is “24 h, read-out: IKZF2 % protein reduction at 10 μM, 24 h”, the Dmax at 10 µM turned out to be 65%.

For the origin of these results see patent US11185537B2, “3-(5-amino-1-oxoisoindolin-2-yl)piperidine-2,6-dione derivatives and uses thereof” (Novartis AG, priority 2018, dated 2021).
